Tests used:
[1] = target: CDK2/Cyclin E1(14-475) (Homo sapiens, UniProt P24941); experiment: Caliper LabChip EZ Reader mobility shift assay, inhibition of CDK2/Cyclin E1 activity; assay type: biochemical; settings: class symbols A-D
Description: Inhibition of CDK2/Cyclin E1 activity in the presence of compounds of the present disclosure was evaluated using a Caliper LabChip® EZ Reader mobility shift assay. In the assay, activated CDK2/Cyclin E1 catalyzes the phosphorylation of a fluorescently tagged peptide 5-FAM-QSPKKG-CONH2 (PerkinElmer, FL Peptide 18) which induces a difference in capillary electrophoresis mobility. The peptide substrate and product were measured, and the conversion ratio was used to determine the inhibition (as % activity and IC50 values) of CDK2/Cyclin E1. Reactions contained 50 mM HEPES pH 7.5, 10 mM MgCl2, 1 mM EDTA, 2 mM DTT, 0.01% Brij35, 0.5 mg/mL BSA, 0.1% DMSO, 2.5 nM CDK2/Cyclin E1(14-475), 100 μM ATP, and 1.5 μM fluorescent peptide substrate.
Dose titrations of inhibitors in 100% DMSO were combined with 3.25 nM CDK2/Cyclin E1(14-475) and 130 μM of ATP in reaction buffer. The mixtures were incubated for 30 minutes before the addition of fluorescent peptide substrate to initiate the kinase reaction. The final conditions were 2.5 nM CDK2/Cyclin E1(14-475), 100 μM ATP, and 1.5 μM fluorescent peptide. The reactions were stopped after 100 minutes with the addition of EDTA (6 mM final EDTA concentration). The stopped reactions were analyzed on a Caliper LabChip® EZ Reader II. The conversion ratios were normalized to yield % activity, plotted against compound concentration, and fit to a four-parameter equation to determine the IC50 for each compound.

[2] = tested on: Kuramochi cells; experiment: BrdU cell proliferation assay (colorimetric ELISA), Kuramochi cells; assay type: cell-based; settings: class symbols A-D
Description: A BrdU assay was used as a measure of proliferation based on the DNA replication process of proliferating cells. BrdU, a pyrimidine analog, is added to the cell culture and incorporated into the DNA of proliferating cells. The presence of the BrdU analog was then measured through a colorimetric ELISA. After fixation and permeabilization of cells, peroxidase-conjugated antibody recognizing BrdU is added and allowed to incubate, followed by thorough washing to remove unbound antibody. In order to quantify the amount of bound antibody, peroxidase substrate is added and produces a color that can be measured at 450 nm.
On day −1, Kuramochi cells (Sekisui XenoTech JCRB0098) were seeded at 2,000 cells/well in columns 2-12 of a 96 well plate (Corning, CLS3596) in 150 uL media and allowed to adhere overnight at 37 degree with 5% CO2. In order to assess specificity of the compounds, Kuramochi RB^KO cells were also plated and treated, as RB^KO cells were not expected to show a proliferative response to CCNE/CDK specific inhibitors.
On day 0, the source plate was prepared by adding 10 mM compounds and performing 3-fold serial dilutions for a 4-point dose response of each compound. Using a multichannel pipette, 2 uL of the contents of the source plate were stamped into an intermediate plate with 500 uL of RPMI 1640 Media, GlutaMAX Supplement (Life Technologies, 61870127) in each well of a Nunc 96 DeepWell™ plate, non-treated 96 DeepWell plate, 2 mL/well, sterile, natural, 60/cs (Sigma Z717274) and mixed thoroughly. 50 uL from row A of this intermediate plate were added to rows A-H of one plate of previously seeded Kuramochi cells, and each subsequent row of the intermediate plate was added to a full plate of cells.
On day 4, the plates were developed using the BrdU ELISA Cell Proliferation Assay according to manufacturer's instructions (Roche, 11647229001). Briefly, BrdU was diluted 1:100 in Gibco®, Opti-MEM® and 20 μL/well was added, shaken for 10 minutes at 350 rpm, and then returned to the incubator for 1 hour. Following incubation, the medium was discarded, and the cells were fixed by adding 200 μL of Fix/Denature solution. The anti-BrdU peroxidase antibody was diluted 1:1000 in OptiMEM, added at 100 μL/well, and incubated while shaking (350 rpm) for one hour. Three washes with PBS were performed to remove any unbound antibody, followed by the addition of 100 μL of substrate solution to each well. […] was then added to halt the reaction, and plates were read out using an Envision spectrophotometer (Perkin Elmer) set to read 450 nm absorbance. Background absorbance values from empty wells were subtracted from all samples and then normalized to DMSO treated wells.

SMILES	IC50 [1] [µM]	IC50 [2] [µM]
COc1cc(C(=O)N2CC3CN(C(=O)Cc4c[nH]c5cc(Cl)ccc45)CC(C(=O)N[C@@H](CCCc4cccc(O)c4)C(=O)NCCCCCN)C3C2)ccc1OC(C)C (single isomer, unassigned) [I-258]	> 10	> 10
COc1cc(C(=O)N2CC3CN(C(=O)Cc4c[nH]c5cc(Cl)ccc45)CC(C(=O)N[C@H](C(=O)NCCCCCNC(=O)OC(C)(C)C)C(C)OCc4ccccc4)C3C2)ccc1OC(C)C (single isomer, unassigned) [I-259]	≤ 0.5	0.5 to 5
COc1cc(C(=O)N2CC3CN(C(=O)Cc4c[nH]c5cc(Cl)ccc45)CC(C(=O)N[C@H](C(=O)NCCCCCNC(=O)OC(C)(C)C)C(C)OCc4ccccc4)C3C2)ccc1OC(C)C (single isomer, unassigned) [I-260]	0.5 to 5	> 10
CNC(=O)[C@H](CCCc1ccccc1)NC(=O)C1CN(C(=O)Cc2c[nH]c3cc(Cl)ccc23)CC2CN(C(=O)c3ccc4oc(C)cc4c3)CC21 (stereo partly shown) [I-3]	> 10	> 10
CNC(=O)[C@H](CCCc1ccccc1)NC(=O)C1CN(C(=O)Cc2c[nH]c3cc(Cl)ccc23)CC2CN(C(=O)c3ccc(OC)cc3)CC21 (stereo partly shown) [I-5]	> 10	> 10
CNC(=O)[C@H](CCCc1ccccc1)NC(=O)C1CN(C(=O)Cc2c[nH]c3cc(Cl)ccc23)CC2CN(C(=O)c3ccc(OC4CC4)cc3)CC21 (stereo partly shown) [I-6]	0.5 to 5	> 10
CNC(=O)[C@H](CCCc1ccccc1)NC(=O)C1CN(C(=O)Cc2c[nH]c3cc(Cl)ccc23)CC2CN(C(=O)c3ccc(OCC(C)C)cc3)CC21 (stereo partly shown) [I-7]	0.5 to 5	5 to 10
CNC(=O)[C@H](CCCc1ccccc1)NC(=O)C1CN(C(=O)Cc2c[nH]c3cc(Cl)ccc23)CC2CN(C(=O)c3ccc(OCCC4CC4)c(OC)c3)CC21 (stereo partly shown) [I-9]	5 to 10	> 10
CNC(=O)[C@H](CCCc1ccccc1)NC(=O)C1CN(C(=O)Cc2c[nH]c3cc(Cl)ccc23)CC2CN(C(=O)c3ccc(-c4ccncc4)cc3)CC21 (stereo partly shown) [I-14]	> 10	> 10
CNC(=O)[C@H](CCCc1ccccc1)NC(=O)C1CN(C(=O)Cc2c[nH]c3cc(Cl)ccc23)CC2CN(C(=O)c3ccc(C#N)cn3)CC21 (stereo partly shown) [I-15]	> 10	> 10
CNC(=O)[C@H](CCCc1ccccc1)NC(=O)C1CN(C(=O)Cc2c[nH]c3cc(Cl)ccc23)CC2CN(C(=O)c3cnc(OC)cn3)CC21 (stereo partly shown) [I-16]	> 10	> 10
CNC(=O)[C@H](CCCc1ccccc1)NC(=O)C1CN(C(=O)Cc2c[nH]c3cc(Cl)ccc23)CC2CN(C(=O)c3cccc(CO)n3)CC21 (stereo partly shown) [I-20]	> 10	> 10
CNC(=O)[C@H](CCCc1ccccc1)NC(=O)C1CN(C(=O)Cc2c[nH]c3cc(Cl)ccc23)CC2CN(C(=O)c3ccc(OC)nn3)CC21 (stereo partly shown) [I-21]	> 10	> 10
CNC(=O)[C@H](CCCc1ccccc1)NC(=O)C1CN(C(=O)Cc2c[nH]c3cc(Cl)ccc23)CC2CN(C(=O)c3ccc(OC(C)C)c(Cl)c3)CC21 (stereo partly shown) [I-24]	> 10	> 10
CNC(=O)[C@H](CCCc1ccccc1)NC(=O)C1CN(C(=O)Cc2c[nH]c3cc(Cl)ccc23)CC2CN(C(=O)c3ccc(OC(F)(F)F)cc3)CC21 (stereo partly shown) [I-25]	0.5 to 5	> 10
CNC(=O)[C@H](CCCc1ccccc1)NC(=O)C1CN(C(=O)Cc2c[nH]c3cc(Cl)ccc23)CC2CN(C(=O)c3cc(C4CC4)[nH]n3)CC21 (stereo partly shown) [I-30]	> 10	> 10
CNC(=O)[C@H](CCCc1ccccc1)NC(=O)C1CN(C(=O)Cc2c[nH]c3cc(Cl)ccc23)CC2CN(C(=O)c3ccc(S(N)(=O)=O)c(OC)c3)CC21 (stereo partly shown) [I-31]	> 10	> 10
CNC(=O)[C@H](CCCc1ccccc1)NC(=O)C1CN(C(=O)Cc2c[nH]c3cc(Cl)ccc23)CC2CN(C(=O)c3cc4cc(C)ccc4[nH]3)CC21 (stereo partly shown) [I-38]	> 10	> 10
CNC(=O)[C@H](CCCc1ccccc1)NC(=O)C1CN(C(=O)Cc2c[nH]c3cc(Cl)ccc23)CC2CN(C(=O)c3cn4ccncc4n3)CC21 (stereo partly shown) [I-40]	> 10	> 10
CCOc1cnc(C(=O)N2CC3CN(C(=O)Cc4c[nH]c5cc(Cl)ccc45)CC(C(=O)N[C@@H](CCCc4ccccc4)C(=O)NC)C3C2)cn1 (stereo partly shown) [I-41]	> 10	> 10
CNC(=O)[C@H](CCCc1ccccc1)NC(=O)C1CN(C(=O)Cc2c[nH]c3cc(Cl)ccc23)CC2CN(C(=O)c3cnc(C4CC4)nc3)CC21 (stereo partly shown) [I-44]	> 10	> 10
CNC(=O)[C@H](CCCc1ccccc1)NC(=O)C1CN(C(=O)Cc2c[nH]c3cc(Cl)ccc23)CC2CN(C(=O)c3ccc4c(c3)CNC4=O)CC21 (stereo partly shown) [I-45]	> 10	> 10
CNC(=O)[C@H](CCCc1ccccc1)NC(=O)C1CN(C(=O)Cc2c[nH]c3cc(Cl)ccc23)CC2CN(C(=O)c3ccc(OC(C)C)c(F)c3)CC21 (stereo partly shown) [I-46]	0.5 to 5	> 10

Second part, led by results:

IC50 [1] [µM]	SMILES	IC50 [2] [µM]
> 10	CNC(=O)[C@H](CCCc1ccccc1)NC(=O)C1CN(C(=O)Cc2c[nH]c3cc(Cl)ccc23)CC2CN(C(=O)c3ccc4[nH]ncc4c3)CC21 (stereo partly shown) [I-8]	> 10
> 10	CNC(=O)[C@H](CCCc1ccccc1)NC(=O)C1CN(C(=O)Cc2c[nH]c3cc(Cl)ccc23)CC2CN(C(=O)c3cnc4ccccc4c3)CC21 (stereo partly shown) [I-10]	> 10
> 10	CNC(=O)[C@H](CCCc1ccccc1)NC(=O)C1CN(C(=O)Cc2c[nH]c3cc(Cl)ccc23)CC2CN(C(=O)c3cccc(-c4ccccc4)c3)CC21 (stereo partly shown) [I-11]	> 10
> 10	CNC(=O)[C@H](CCCc1ccccc1)NC(=O)C1CN(C(=O)Cc2c[nH]c3cc(Cl)ccc23)CC2CN(C(=O)c3nc4ccccc4[nH]3)CC21 (stereo partly shown) [I-12]	> 10
> 10	CNC(=O)[C@H](CCCc1ccccc1)NC(=O)C1CN(C(=O)Cc2c[nH]c3cc(Cl)ccc23)CC2CN(C(=O)c3ccc4cnccc4c3)CC21 (stereo partly shown) [I-18]	> 10
5 to 10	CNC(=O)[C@H](CCCc1ccccc1)NC(=O)C1CN(C(=O)Cc2c[nH]c3cc(Cl)ccc23)CC2CN(C(=O)c3cc(-c4ccccc4)nn3C)CC21 (stereo partly shown) [I-26]	> 10
> 10	CNC(=O)[C@H](CCCc1ccccc1)NC(=O)C1CN(C(=O)Cc2c[nH]c3cc(Cl)ccc23)CC2CN(C(=O)c3cn(-c4ccccc4)cn3)CC21 (stereo partly shown) [I-27]	> 10
> 10	CNC(=O)[C@H](CCCc1ccccc1)NC(=O)C1CN(C(=O)Cc2c[nH]c3cc(Cl)ccc23)CC2CN(C(=O)c3n[nH]c4ccccc34)CC21 (stereo partly shown) [I-28]	> 10
5 to 10	CNC(=O)[C@H](CCCc1ccccc1)NC(=O)C1CN(C(=O)Cc2c[nH]c3cc(Cl)ccc23)CC2CN(C(=O)c3ccc(OC)c(O)c3)CC21 (stereo partly shown) [I-34]	> 10
> 10	CNC(=O)[C@H](CCCc1ccccc1)NC(=O)C1CN(C(=O)Cc2c[nH]c3cc(Cl)ccc23)CC2CN(C(=O)c3cc4ccccc4cn3)CC21 (stereo partly shown) [I-37]	> 10
> 10	CNC(=O)[C@H](CCCc1ccccc1)NC(=O)C1CN(C(=O)Cc2c[nH]c3cc(Cl)ccc23)CC2CN(C(=O)c3cc(C)n(C)n3)CC21 (stereo partly shown) [I-39]	> 10
> 10	CNC(=O)[C@H](CCCc1ccccc1)NC(=O)C1CN(C(=O)Cc2c[nH]c3cc(Cl)ccc23)CC2CN(C(=O)c3ccc4cccn4c3)CC21 (stereo partly shown) [I-43]	> 10

From US12053459B2, “CDK2 inhibitors and methods of using the same” (Cedilla Therapeutics, Inc., priority 2021, dated 2024)
